Measured values reported in patent EP0591378B1, “METHOD OF PREVENTING AND TREATING CHEMOTHERAPY-INDUCED ALOPECIA” (Hairbiotech, Inc., priority 1991, dated 1993).
Where “and” joins values, the source holds several entries; their conditions need not be identical. Equal values may be shown once. Entries after “also recorded” stand apart in the source; their conditions may differ.

Tests used:
[1] = test system: Cytoxan/Adriamycin-Induced Alopecia; assay: Alopecia induced by Cytoxan/Adriamycin combination in young rats; format: in vivo, Sprague Dawley rats
Protocol: Eight 4-day old Sprague Dawley rats were randomized in two groups of 4 rats each. […] Group II received buffer injections and served as controls. One day after stopping EGF or buffer injections all rats received Cytoxan 25 mg/kg i.p. x 1 day and Adriamycin 2.5 mg/kg i.p. x 3 days. In Group II, all rats had 3+ alopecia over head and neck area. In contrast, in Group I one rat had mild alopecia, one rat minimal alopecia, and two rats no detectable alopecia over head and neck. (FIGURE 5).
(§1) Topical Application of 1,25-dihydroxyvitamin D3: • 1,25-Dihydroxyvitamin D3 was dissolved in absolute ethanol and applied topically with an applicator. Control animals were similarly treated with the same amount of ethanol. Animals were then kept individually separated for a period of three hours following which the treated area was carefully washed with soap and water and dried. Treatment was given daily beginning on day 5 after birth and ending on day 10.
(§2) Chemotherapy: • All chemotherapies were given I.P. and started at 11 days of age. CTX, 35 mg/kg, was given for one day only. VP-16, 1.5 mg/kg, was given for three days. For CTX and ADM combination, CTX, 25 mg/kg was given for one day and ADM, 2.5 mg/kg, for three days. At these doses neither CTX nor ADM alone will produce alopecia. Alopecia was recorded on the tenth day from beginning chemotherapy.
A total of 4 experiments were carried out. […]

VP-16-induced alopecia = assay: VP-16 (Etoposide)-induced alopecia in young rats; format: in vivo
Protocol: Twelve 7 day old rats were randomized in two groups. Group I was treated daily with buffer 0.1 ml s.c. for four days. The second Group was treated daily with Vitamin D3 50µg s.c. over head for four days. After stopping the buffer or Vitamin D3 treatment, all rats received 1.5 mg/kg i.p. of VP-16 (Etoposide) daily for three days.
as §1
as §2, with “At these doses neither CTX nor ADM alone will produce alopecia.” left out
A total of 4 experiments were carried out. In the first experiment, protection from Cytoxan-induced alopecia was examined. The experimental group was pretreated with 0.2 µg of 1,25-dihydroxyvitamin D, in 0.15 ml of absolute ethanol applied topically over the head and neck and the control group received 0.15 ml of alcohol. […] The second experiment was carried out under similar conditions to examine protection from VP-16-induced alopecia. […] The third experiment was designed to examine protection from alopecia induced by Cytoxan-Adriamycin combination. There were 11 rats in each group. […] In the fourth experiment, protection from VP-16-induced alopecia was similarly examined except that the dose of 1,25-dihydroxyvitamin D3 was reduced to 0.1 µg in 0.1 ml absolute ethanol applied topically over the head area only.
as §1, with “RO 23-7553 (1,25 dihydroxy-16-ene-23-yne-cholecalciferol)” for “Topical Application of 1,25-dihydroxyvitamin D3: • 1,25-Dihydroxyvitamin D3”, “9” for “5”, “14.” for “10.”
On day 15 all animals received VP-16, 1.5 mg/kg i.p., for three days. Alopecia was recorded on day 25.
Thirteen rats were randomized in two groups. Experimental group, 7 rats; control group, 6 rats. The experimental group was pretreated with 1 µg of RO 23-7553 in 0.2 ml absolute ethanol applied topically over the neck and back and the control group received 0.2 ml of absolute ethanol.

Cytoxan-induced alopecia = Cytoxan-induced alopecia in young rats; format: in vivo
hair growth [2] = assay: Stimulation of hair regrowth on the shaven back of rats; format: in vivo, Sprague Dawley rats
Protocol: The backs of nineteen 25 day old Sprague Dawley rats were shaven and randomized in two groups.
Group I (control 10 rats) received 0.1 ml of ethanol applied topically once daily to the shaven area for 14 days.
Group II (Calcitriol 9 rats) received 50 ng of 1,25-dihydroxyvitamin D3 in 0.1 ml of ethanol applied topically once daily to the shaven area for 14 days.
On day 15 stimulation of hair regrowth was assessed by reshaving an area 6 cm x 6 cm in diameter. The hair was collected and weighed. The difference between two groups was highly statistically significant. P. value 0.003 (see Table III and Figure 11).

hair growth [3] = assay: as above; format: in vivo, Sprague Dawley rats; conditions: observation in treated rats during the chemotherapy-induced alopecia studies
[4] = test system: EGF receptors on breast cancer cells; conditions: cited from earlier work
[5] = test system: EGF receptors on a cell line established from rat calvaria; conditions: cited from earlier work
ARA-C-induced alopecia = ARA-C-induced alopecia in young rats; format: in vivo, Sprague Dawley rats; conditions: Alopecic drug Cytarabine (ARA-C) 50 mg/kg i.p. daily for 7 days, 50 µg daily i.p. or s.c. for 4 days prior to chemotherapy, 1 experiment, 8 animals, uniformly observed in all treated animals
Protocol: Sprague Dawley rats were purchased from Charles River Laboratories, Wilmington, MA. Cytosar-U (ARA-C) was from the Upjohn Company, Kalamazoo, MI. Receptor grade EGF from mouse submaxillary glands, human recombinant EGF, dimethyl sulfoxide (DMSO) and Vitamin D3 were purchased from Sigma Chemical Co., St. Louis, MO. aFGF was purchased from AMGEN Corp., Thousand Oaks, CA.
All rats from each experiment were treated with ARA-C 50 mg/kg intraperitoneally (i.p.) daily for 7 days. For subcutaneous (s.c.) injections, EGF and FGF were prepared in PBS 1% BSA. Alopecia was always recorded on day 12 of experiment, and scored as previously described (Hussein et al, Science, 249:1564-1566, 1990; Jimenez et al, FASEB J., 1991).
For topical treatment, murine EGF was prepared as follows: One vial of EGF (100 µg) was dissolved in 0.2 ml of PBS 1% BSA and 0.12 ml of this solution was added to 0.48 of DMSO. Three hours prior to ARA-C injection, 0.1 ml of the EGF-DMSO mixture was applied to each rat over a 1 cm^2 area between the shoulders using a rubber tip applicator. Rats were then kept individually separated for a period of three hours, following which the treated area was carefully washed with soap and water and dried. Treatment was continued for 7 days. […]
Fourteen 7-day old rats were randomized in two groups. […] Alopecia was recorded on day 12 of experiment. […]

Compound: C=C1/C(=C\C=C2/CCC[C@]3(C)[C@@H]([C@H](C)CCCC(C)(C)O)CC[C@@H]23)C[C@@H](O)C[C@@H]1O [1,25-dihydroxyvitamin D3]
- protection from alopecia induced by Cytoxan-Adriamycin combination ([1]; pretreatment 0.2 µg in 0.15 ml absolute ethanol topically over head and neck, CTX 25 mg/kg one day and ADM 2.5 mg/kg three days I.P., 11 rats, all rats): protected
- protection from VP-16-induced alopecia (VP-16-induced alopecia; applied topically 0.5 µg daily in 50% ethanol or DMSO): protected
- protection from VP-16-induced alopecia (VP-16-induced alopecia; pretreatment 0.1 µg in 0.1 ml absolute ethanol topically over the head area only, VP-16 1.5 mg/kg I.P. for three days, all rats): protected primarily at the site of 1,25-dihydroxyvitamin D3 application; also recorded: less generalized and was more limited to the site of application
- protection from VP-16-induced alopecia (VP-16-induced alopecia; pretreatment 0.2 µg in 0.15 ml absolute ethanol topically over head and neck, VP-16 1.5 mg/kg I.P. for three days, recorded on tenth day, all rats): protected; also recorded: not limited to the site of application but involved the entire body
- protection from Cytoxan-induced alopecia (Cytoxan-induced alopecia; pretreatment 0.2 µg in 0.15 ml absolute ethanol topically over head and neck, day 5 to day 10 after birth, CTX 35 mg/kg I.P. one day, recorded on tenth day, all animals): protected
- Hair Weight, Mean S.E.M. (hair growth [2]; 50 ng in 0.1 ml ethanol topically once daily for 14 days, 9 rats, day 15, P. value 0.003 versus control (113 ± 8)): 164 ± 13 Mg.
- Hair Weight (individual rats) (hair growth [2]; 50 ng in 0.1 ml ethanol topically once daily to the shaven area for 14 days, reshaved area 6 cm x 6 cm on day 15, listed as Calcitriol): 135 Mg. and 202 Mg. and 143 Mg. and 150 Mg. and 253 Mg. and 130 Mg. and 177 Mg. and 140 Mg. and 147 Mg.
- coat of hair and hair length in the treated area (hair growth [3]): better coat of hair and longer hair in the treated area
- effect on EGF receptors on breast cancer cells [4]: increase
- effect on EGF receptors on a cell line established from rat calvaria [5]: increase

Compound: C=C1/C(=C\C=C2/CCC[C@]3(C)C([C@H](C)CC#CC(C)(C)O)=CC[C@@H]23)C[C@@H](O)C[C@@H]1O [RO 23-7553, 1,25 dihydroxy-16-ene-23-yne-cholecalciferol]
- protection from VP-16-induced alopecia (VP-16-induced alopecia; pretreatment 1 µg in 0.2 ml absolute ethanol topically over neck and back, day 9 to day 14 after birth, VP-16 1.5 mg/kg i.p. three days from day 15, recorded on day 25, 7 rats, all animals): protected

Compound: C=C1CC[C@H](O)C/C1=C/C=C1\CCC[C@]2(C)[C@@H]([C@H](C)CCCC(C)C)CC[C@@H]12 [Vitamin D3]
- Protection from alopecia (ARA-C-induced alopecia): excellent protection and Yes*
- Protection from alopecia ([1]; Adriamycin 2.5 mg/kg i.p. daily for 3 days plus Cytoxan 25 mg/kg single injection, 50 µg daily i.p. or s.c. for 4 days prior to chemotherapy, 6 experiments, 77 animals, uniformly observed in all treated animals): excellent protection and Yes*
- Protection from alopecia (VP-16-induced alopecia; 50µg s.c. over head daily for four days, then VP-16 1.5 mg/kg i.p. daily for three days, 7 day old rats): protected
- Protection from alopecia (VP-16-induced alopecia; Alopecic drug Etoposide (VP-16) 1.5 mg/kg i.p. daily for 3 days, 50 µg daily i.p. or s.c. for 4 days prior to chemotherapy, 2 experiments, 22 animals, uniformly observed in all treated animals): excellent protection and Yes*
- Protection from alopecia (Cytoxan-induced alopecia; Alopecic drug Cytoxan (CTX) 32.5 mg/kg single injection, 50 µg daily i.p. or s.c. for 4 days prior to chemotherapy, 7 experiments, 89 animals, uniformly observed in all treated animals, 32.5 mg/kg): excellent protection and Yes*
